Source: the NIST ThermoML archive (doi:10.1016/j.jct.2015.02.001)
Values joined by “and” are separate entries in the source; they are usually repeats but may differ in a detail not shown here. Identical values can stand only once.

Conditions: Liquid, Transpiration method

COc1ccc(C)cc1 [1-methoxy-4-methylbenzene]
Conditions	vapor or sublimation pressure
275.2 K	0.0275 kPa
276.4 K	0.031 kPa
277.2 K	0.0326 kPa
278.8 K	0.0379 kPa
281.7 K	0.0478 kPa
284.8 K	0.0612 kPa
287.5 K	0.0759 kPa
289.2 K	0.0861 kPa
290.4 K	0.095 kPa
291.2 K	0.0997 kPa
291.3 K	0.1015 kPa
294.2 K	0.1267 kPa
296.2 K	0.1436 kPa
297.1 K	0.1563 kPa
299.2 K	0.1817 kPa
300.1 K	0.1942 kPa and 0.2003 kPa
301.1 K	0.2085 kPa
303.1 K	0.2465 kPa
305 K	0.2782 kPa
308 K	0.3386 kPa

COc1ccccc1C [1-methoxy-2-methylbenzene]
Conditions	vapor or sublimation pressure
275.8 K	0.035 kPa
277.7 K	0.0405 kPa
278.7 K	0.0432 kPa
280.6 K	0.0504 kPa
282.6 K	0.0599 kPa
285.7 K	0.0735 kPa
286.8 K	0.0821 kPa
290.2 K	0.1038 kPa
293.4 K	0.1308 kPa
296.2 K	0.1606 kPa
298.2 K	0.1819 kPa
300.2 K	0.2111 kPa and 0.2117 kPa
303.3 K	0.2601 kPa
305.1 K	0.2865 kPa
308 K	0.3491 kPa

COc1cccc(C)c1 [1-methoxy-3-methylbenzene]
Conditions	vapor or sublimation pressure [kPa]
276.7 K	0.0285
277.8 K	0.0314
280.6 K	0.0395
284.7 K	0.0541
289.4 K	0.0804
291.9 K	0.094
297.7 K	0.1433
301.1 K	0.1806
304.1 K	0.2286
305 K	0.2433
308 K	0.3006
310 K	0.3363
312.2 K	0.4058
